According to patent US9708314B2, “Heterocyclic amide compound” (NISSAN CHEMICAL INDUSTRIES, LTD., priority 2013, dated 2017):

What was measured:
Type in all cases: in vivo
[1] = tested on: transplanted Oryza sativa; assay: Test Example 1: effect on crop, application before weed generation in submerged conditions; conditions: Application herbicide amount 320 g/ha; Seventeenth Table
Source text: (§1) [Test Example 1] Herbicidal Activity Test by Application Before Weed Generation in Submerged Conditions After alluvial soil was placed into 1/10000 are of Wagner pot, water was poured and mixed to form a submerged condition having a water depth of 4 cm. Seeds of Echinochloa oryzacola Vasing., Scirpus juncoides, and Monochoria vaginalis were sowed in a mixed manner in the above pot and thereafter 2.5 leaf stage Oryza sativa seedling was transplanted. On the day of sowing seeds, the emulsion agent containing the compound of the present invention prepared in accordance with Formulation Example 2 was diluted with water so as to be a predetermined herbicide amount and the diluted compound was applied to the surface of the water. The pot was placed in a greenhouse of 25° C. to 30° C. to grow plant. Three weeks after the herbicide application, effects on each plant were investigated in accordance with the following criteria. Criteria 5 Herbicidal ratio of 90% or more (almost completely withered) 4 Herbicidal ratio of 70% or more and less than 90% 3 Herbicidal ratio of 40% or more and less than 70% 2 Herbicidal ratio of 20% or more and less than 40% 1 Herbicidal ratio of 5% or more and less than 20% 0 Herbicidal ratio of 5% or less (almost no effect) A: Echinochloa oryzicola Vasing., B: Scirpus juncoides, C: Monochoria vaginalis, D: Leptochloa chinensis, E: Cyperus difformis, F: Digitaria ciliaris, G: Setaria viridis, H: Echinochloa crus-galli var. crus-galli, I: Avena fatua, J: Alopecurus myosuroides, K: Lolium multiflorum Lam., L: Apera spica-venti., M: Abutilon theophrasti, N: Amaranthus retroflexus, O: Chenopodium album, P: Stellaria media, Q: Galium spurium, R: Veronica persica, a: transplanted Oryza sativa, b: directly sowed Oryza sativa, c: Zea mays, d: Glycine max, e: Triticum aestivum, f: Beta vulgaris ssp. vulgaris, and g: Brassica campestris L. The application herbicide amount (g/ha) means an amount that a concentration is adjusted so that, when an application amount is converted into per hectare (1 ha), the herbicide is applied by the number of grams (g) of the described value.

[2] = tested on: Setaria viridis; assay: Test Example 4: herbicidal effect by application to foliage (diluvial soil, plastic box); conditions: application to foliage
Source text: (§2) 5 Herbicidal ratio of 90% or more (almost completely withered) 4 Herbicidal ratio of 70% or more and less than 90% 3 Herbicidal ratio of 40% or more and less than 70% 2 Herbicidal ratio of 20% or more and less than 40% 1 Herbicidal ratio of 5% or more and less than 20% 0 Herbicidal ratio of 5% or less (almost no effect) [Test Example 4] Herbicidal Effect Test by Application to Foliage Sterilized diluvial soil was placed in a plastic box having a length of 21 cm, a width of 13 cm, and a depth of 7 cm. Each of the seeds of Digitaria ciliaris, Setaria viridis, Echinochloa crus-galli var. crus-galli, Avena fatua, Alopecurus myosuroides, Lolium multiflorum Lam., Apera spica-venti., Abutilon theophrasti, Amaranthus retroflexus, Chenopodium album, Stellaria media, Galium spurium, Veronica persica, Zea mays, Glycine max, Oryza sativa, Triticum aestivum, Beta vulgaris ssp. vulgaris, and Brassica campestris L. was sowed in a spot-like manner and was covered with the soil of about 1.5 cm thick. Thereafter, the plants were grown in the greenhouse of 25° C. to 30° C. After the plants were grown for 14 days, the emulsion agent containing the compound of the present invention prepared in accordance with Formulation Example 2 was diluted with water so as to be a predetermined herbicide amount and the diluted compound was uniformly applied to a stem and leaf part with a small-size spray. Three weeks after the herbicide application, effects on each plant were investigated in accordance with the criteria of Test Example 1. A: Echinochloa oryzicola Vasing., B: Scirpus juncoides, C: Monochoria vaginalis, D: Leptochloa chinensis, E: Cyperus difformis, F: Digitaria ciliaris, G: Setaria viridis, H: Echinochloa crus-galli var. crus-galli, I: Avena fatua, J: Alopecurus myosuroides, K: Lolium multiflorum Lam., L: Apera spica-venti., M: Abutilon theophrasti, N: Amaranthus retroflexus, O: Chenopodium album, P: Stellaria media, Q: Galium spurium, R: Veronica persica, a: transplanted Oryza sativa, b: directly sowed Oryza sativa, c: Zea mays, d: Glycine max, e: Triticum aestivum, f: Beta vulgaris ssp. vulgaris, and g: Brassica campestris L. The application herbicide amount (g/ha) means an amount that a concentration is adjusted so that, when an application amount is converted into per hectare (1 ha), the herbicide is applied by the number of grams (g) of the described value.

[3] = tested on: Stellaria media; assay: as above; conditions: application to foliage
Source text: as §2

[4] = tested on: Avena fatua; assay: as above; conditions: application to foliage
Source text: as §2

[5] = tested on: Veronica persica; assay: as above; conditions: application to foliage
Source text: as §2

[6] = tested on: Alopecurus myosuroides; assay: as above; conditions: application to foliage
Source text: as §2

[7] = tested on: Echinochloa crus-galli var. crus-galli; assay: as above; conditions: application to foliage
Source text: as §2

[8] = tested on: Chenopodium album; assay: as above; conditions: application to foliage
Source text: as §2

[9] = tested on: Lolium multiflorum Lam.; assay: as above; conditions: application to foliage
Source text: as §2

[10] = tested on: Galium spurium; assay: as above; conditions: application to foliage
Source text: as §2

[11] = tested on: Amaranthus retroflexus; assay: as above; conditions: application to foliage
Source text: as §2

[12] = tested on: Digitaria ciliaris; assay: as above; conditions: application to foliage
Source text: as §2

[13] = tested on: Apera spica-venti.; assay: as above; conditions: application to foliage
Source text: as §2

[14] = tested on: Abutilon theophrasti; assay: as above; conditions: application to foliage
Source text: as §2

[15] = tested on: Scirpus juncoides; assay: Test Example 1: herbicidal activity, application before weed generation in submerged conditions; conditions: Application herbicide amount 320 g/ha; Seventeenth Table
Source text: as §1

[16] = tested on: Monochoria vaginalis; assay: as above; conditions: Application herbicide amount 320 g/ha; Seventeenth Table
Source text: as §1

[17] = tested on: Triticum aestivum; assay: Test Example 4: effect on crop by application to foliage (diluvial soil, plastic box); conditions: application to foliage
How it was run: (§3)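 Emulsion-formulated compound, diluted to a predetermined g/ha dose, applied by small sprayer to leaves and stems of 14-day-old seedlings grown in sterilized diluvial soil. Effect rated on 0–5 herbicidal-ratio scale three weeks on.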

[18] = tested on: Beta vulgaris ssp. vulgaris; assay: as above; conditions: application to foliage
How it was run: as §3

[19] = tested on: directly sowed Oryza sativa; assay: as above; conditions: application to foliage
How it was run: as §3

[20] = tested on: Brassica campestris L.; assay: as above; conditions: application to foliage
How it was run: as §3

[21] = tested on: Zea mays; assay: as above; conditions: application to foliage
How it was run: as §3

[22] = tested on: Glycine max; assay: as above; conditions: application to foliage
How it was run: as §3

[23] = tested on: Leptochloa chinensis; assay: Test Example 3: herbicidal effect by application to foliage (Wagner pot, water depth 0.1-0.5 cm); conditions: Nineteenth Table; application to foliage; application herbicide amount 320 g/ha
Source text: (§4) 5 Herbicidal ratio of 90% or more (almost completely withered) 4 Herbicidal ratio of 70% or more and less than 90% 3 Herbicidal ratio of 40% or more and less than 70% 2 Herbicidal ratio of 20% or more and less than 40% 1 Herbicidal ratio of 5% or more and less than 20% 0 Herbicidal ratio of 5% or less (almost no effect) [Test Example 3] Herbicidal Effect Test by Application to Foliage After alluvial soil was placed into 1/10000 are of Wagner pot, water was poured and mixed to form a condition having a water depth of 0.1 cm to 0.5 cm. Seeds of Echinochloa crus-galli var. crus-galli, Leptochloa chinensis, Cyperus difformis, and Oryza sativa were sowed and the pot was placed in the greenhouse of 25° C. to 30° C. to grow the plants. After the plants were grown for 14 days, the emulsion agent containing the compound of the present invention prepared in accordance with Formulation Example 2 was diluted with water so as to be a predetermined herbicide amount and the diluted compound was uniformly applied to a stem and leaf part with a small-size spray. Three weeks after the herbicide application, effects on each plant were investigated in accordance with the criteria of Test Example 1. A: Echinochloa oryzicola Vasing., B: Scirpus juncoides, C: Monochoria vaginalis, D: Leptochloa chinensis, E: Cyperus difformis, F: Digitaria ciliaris, G: Setaria viridis, H: Echinochloa crus-galli var. crus-galli, I: Avena fatua, J: Alopecurus myosuroides, K: Lolium multiflorum Lam., L: Apera spica-venti., M: Abutilon theophrasti, N: Amaranthus retroflexus, O: Chenopodium album, P: Stellaria media, Q: Galium spurium, R: Veronica persica, a: transplanted Oryza sativa, b: directly sowed Oryza sativa, c: Zea mays, d: Glycine max, e: Triticum aestivum, f: Beta vulgaris ssp. vulgaris, and g: Brassica campestris L. The application herbicide amount (g/ha) means an amount that a concentration is adjusted so that, when an application amount is converted into per hectare (1 ha), the herbicide is applied by the number of grams (g) of the described value.

[24] = tested on: Cyperus difformis; assay: as above; conditions: Nineteenth Table; application to foliage; application herbicide amount 320 g/ha
Source text: as §4

[25] = tested on: Echinochloa crus-galli var. crus-galli; assay: as above; conditions: Nineteenth Table; application to foliage; application herbicide amount 320 g/ha
Source text: as §4

[26] = application herbicide amount 320 g/ha

Q: Which results are given for `CC#Cc1nnc2c(C(=O)Nc3nnc(C)o3)ccc(C(F)(F)F)n12` [1-161]?
A: a: transplanted Oryza sativa (effect on crop grade) [1]: 0 (Herbicidal ratio of 5% or less (almost no effect)); G: herbicidal effect on Setaria viridis [2, 26]: 0 (Herbicidal ratio of 5% or less (almost no effect)); P: herbicidal effect on Stellaria media [3, 26]: 0 (Herbicidal ratio of 5% or less (almost no effect)); I: herbicidal effect on Avena fatua [4, 26]: 0 (Herbicidal ratio of 5% or less (almost no effect)); R: herbicidal effect on Veronica persica [5, 26]: 1 (Herbicidal ratio of 5% or more and less than 20%); J: herbicidal effect on Alopecurus myosuroides [6, 26]: 0 (Herbicidal ratio of 5% or less (almost no effect)); H: herbicidal effect on Echinochloa crus-galli var. crus-galli [7, 26]: 3 (Herbicidal ratio of 40% or more and less than 70%); O: herbicidal effect on Chenopodium album [8, 26]: 4 (Herbicidal ratio of 70% or more and less than 90%); K: herbicidal effect on Lolium multiflorum Lam. [9, 26]: 0 (Herbicidal ratio of 5% or less (almost no effect)); Q: herbicidal effect on Galium spurium [10, 26]: 0 (Herbicidal ratio of 5% or less (almost no effect)); N: herbicidal effect on Amaranthus retroflexus [11, 26]: 0 (Herbicidal ratio of 5% or less (almost no effect)); F: herbicidal effect on Digitaria ciliaris [12, 26]: 3 (Herbicidal ratio of 40% or more and less than 70%); L: herbicidal effect on Apera spica-venti. [13, 26]: 0 (Herbicidal ratio of 5% or less (almost no effect)); M: herbicidal effect on Abutilon theophrasti [14, 26]: 1 (Herbicidal ratio of 5% or more and less than 20%); B: Scirpus juncoides (herbicidal effect grade) [15]: 2 (Herbicidal ratio of 20% or more and less than 40%); C: Monochoria vaginalis (herbicidal effect grade) [16]: 0 (Herbicidal ratio of 5% or less (almost no effect)); e: effect on crop, Triticum aestivum [17, 26]: 0 (Herbicidal ratio of 5% or less (almost no effect)); f: effect on crop, Beta vulgaris ssp. vulgaris [18, 26]: 1 (Herbicidal ratio of 5% or more and less than 20%); b: effect on crop, directly sowed Oryza sativa [19, 26]: 0 (Herbicidal ratio of 5% or less (almost no effect)); g: effect on crop, Brassica campestris L. [20, 26]: 0 (Herbicidal ratio of 5% or less (almost no effect)); c: effect on crop, Zea mays [21, 26]: 0 (Herbicidal ratio of 5% or less (almost no effect)); d: effect on crop, Glycine max [22, 26]: 1 (Herbicidal ratio of 5% or more and less than 20%)

Q: Which results are given for `CCOC(=O)Cn1nnnc1NC(=O)c1ccc(C(F)(F)F)n2c(C(C)C)nnc12` [2-092]?
A: herbicidal effect, G (Setaria viridis) ([2]; 320 g/ha): 0 (Herbicidal ratio of 5% or less (almost no effect)); herbicidal effect, P (Stellaria media) ([3]; 320 g/ha): 3 (Herbicidal ratio of 40% or more and less than 70%); herbicidal effect, I (Avena fatua) ([4]; 320 g/ha): 1 (Herbicidal ratio of 5% or more and less than 20%); herbicidal effect, R (Veronica persica) ([5]; 320 g/ha): 1 (Herbicidal ratio of 5% or more and less than 20%); herbicidal effect, J (Alopecurus myosuroides) ([6]; 320 g/ha): 0 (Herbicidal ratio of 5% or less (almost no effect)); herbicidal effect, H (Echinochloa crus-galli var. crus-galli) ([7]; 320 g/ha): 2 (Herbicidal ratio of 20% or more and less than 40%); herbicidal effect, O (Chenopodium album) ([8]; 320 g/ha): 3 (Herbicidal ratio of 40% or more and less than 70%); herbicidal effect, K (Lolium multiflorum Lam.) ([9]; 320 g/ha): 0 (Herbicidal ratio of 5% or less (almost no effect)); herbicidal effect, Q (Galium spurium) ([10]; 320 g/ha): 1 (Herbicidal ratio of 5% or more and less than 20%); herbicidal effect, N (Amaranthus retroflexus) ([11]; 320 g/ha): 1 (Herbicidal ratio of 5% or more and less than 20%); herbicidal effect, F (Digitaria ciliaris) ([12]; 320 g/ha): 0 (Herbicidal ratio of 5% or less (almost no effect)); herbicidal effect, L (Apera spica-venti.) ([13]; 320 g/ha): 0 (Herbicidal ratio of 5% or less (almost no effect)); herbicidal effect, M (Abutilon theophrasti) ([14]; 320 g/ha): 1 (Herbicidal ratio of 5% or more and less than 20%); D (herbicidal effect grade) [23]: 3 (Herbicidal ratio of 40% or more and less than 70%); E (herbicidal effect grade) [24]: 2 (Herbicidal ratio of 20% or more and less than 40%); H (herbicidal effect grade) [25]: 2 (Herbicidal ratio of 20% or more and less than 40%); effect on crop, e (Triticum aestivum) ([17]; 320 g/ha): 0 (Herbicidal ratio of 5% or less (almost no effect)); effect on crop, f (Beta vulgaris ssp. vulgaris) ([18]; 320 g/ha): 3 (Herbicidal ratio of 40% or more and less than 70%); effect on crop, d (directly sowed Oryza sativa) ([19]; 320 g/ha): 1 (Herbicidal ratio of 5% or more and less than 20%); effect on crop, g (Brassica campestris L.) ([20]; 320 g/ha): 0 (Herbicidal ratio of 5% or less (almost no effect)); effect on crop, b (Zea mays) ([21]; 320 g/ha): 0 (Herbicidal ratio of 5% or less (almost no effect)); effect on crop, c (Glycine max) ([22]; 320 g/ha): 0 (Herbicidal ratio of 5% or less (almost no effect))
